Results reported in ChEMBL document CHEMBL1201862, “PubChem BioAssay data set” (2004).
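1) Cells in 96-well plates. 2) Compound, 48 h, 5 concentrations. 3) Linear interpolation between surrounding doses. 4) Unreached endpoint = highest concentration. GI50: concentration for 50% inhibition of growth.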 The source made the active and inactive calls. No stated cut-off is given here; in the data, active = GI50 up to about 1.1 µM and inactive = higher.

What was measured:
Experiment in all cases: growth of human tumour cells (NCI), 48 h
KM12 = test system: KM12
K562 = test system: K562
KM-20L2 = test system: KM-20L2
SK-MEL-2 = test system: SK-MEL-2
RPMI-8226 = test system: RPMI-8226
SK-MEL-5 = test system: SK-MEL-5
NCI-H460 = test system: NCI-H460
ACHN = test system: ACHN
M14 = test system: M14
COLO 205 = test system: COLO 205
UO-31 = test system: UO-31
HCC 2998 = test system: HCC 2998
HCT-116 = test system: HCT-116
SK-MEL-28 = test system: SK-MEL-28
TK-10 = test system: TK-10
Malme-3M = test system: Malme-3M
CCRF-CEM = test system: CCRF-CEM
M19-MEL = test system: M19-MEL
XF498 = test system: XF498
HT-29 = test system: HT-29
LXFL 529 = test system: LXFL 529
U-251 = test system: U-251
IGROV-1 = test system: IGROV-1
SF-539 = test system: SF-539
SR = test system: SR
HCT-15 = test system: HCT-15
CAKI-1 = test system: CAKI-1
SF-268 = test system: SF-268
OVCAR-8 = test system: OVCAR-8
A549 = test system: A549
A498 = test system: A498
OVCAR-3 = test system: OVCAR-3
786-0 = test system: 786-0
DLD-1 = test system: DLD-1
DMS-114 = test system: DMS-114
SNB-75 = test system: SNB-75
RXF 393 = test system: RXF 393
SNB-19 = test system: SNB-19
SN12C = test system: SN12C
HOP-92 = test system: HOP-92
SW-620 = test system: SW-620
OVCAR-4 = test system: OVCAR-4
HOP-18 = test system: HOP-18
DMS-273 = test system: DMS-273
HL-60 = test system: HL-60
NCI-H522 = test system: NCI-H522
NCI-H226 = test system: NCI-H226
EKVX = test system: EKVX
SF-295 = test system: SF-295
SK-OV-3 = test system: SK-OV-3
MOLT-4 = test system: MOLT-4
NCI-H23 = test system: NCI-H23
HOP-62 = test system: HOP-62
LOX IMVI = test system: LOX IMVI
UACC-257 = test system: UACC-257
OVCAR-5 = test system: OVCAR-5
SNB-78 = test system: SNB-78
UACC-62 = test system: UACC-62

Measured: GI50

CC(C)=CCCc1c(C)ccc2c1C(=O)C(=O)C(C(C)C)=C2
3.85 µM: HCT-15
active: RPMI-8226 0.839 µM | CCRF-CEM 0.661 µM | HL-60 1.03 µM
inactive: KM12 > 22 µM | K562 3.87 µM | KM-20L2 > 22 µM | SK-MEL-2 4.1 µM | SK-MEL-5 20 µM | NCI-H460 10.7 µM | ACHN 3.8 µM | M14 4.24 µM | COLO 205 7.24 µM | UO-31 6.98 µM | HCC 2998 > 22 µM | HCT-116 3.57 µM | SK-MEL-28 3.87 µM | TK-10 4.41 µM | Malme-3M 3.73 µM | M19-MEL 3.87 µM | XF498 3.77 µM | HT-29 7.11 µM | LXFL 529 3.62 µM | U-251 > 22 µM | IGROV-1 9.84 µM | SF-539 4.27 µM | SR 3.5 µM | CAKI-1 4.16 µM | SF-268 5.71 µM | OVCAR-8 3.85 µM | A549 > 22 µM | A498 > 22 µM | OVCAR-3 3.76 µM | 786-0 3.95 µM | DLD-1 3.48 µM | DMS-114 4.2 µM | SNB-75 9.62 µM | RXF 393 3.68 µM | SNB-19 > 22 µM | SN12C 9.06 µM | HOP-92 3.26 µM | SW-620 3.86 µM | OVCAR-4 3.84 µM | HOP-18 4.02 µM | DMS-273 3.97 µM | NCI-H522 3.4 µM | NCI-H226 > 22 µM | EKVX > 22 µM | SF-295 > 22 µM | SK-OV-3 > 22 µM | MOLT-4 1.36 µM | NCI-H23 3.94 µM

O=C1CC23CC(=O)CC2(C1)c1ccccc1C3=O (stereo not drawn)
inactive: KM12 > 100 µM | K562 > 100 µM | KM-20L2 > 100 µM | SK-MEL-2 > 100 µM | RPMI-8226 > 100 µM | HOP-62 > 100 µM | NCI-H460 > 100 µM | ACHN > 100 µM | M14 > 100 µM | COLO 205 > 100 µM | UO-31 > 100 µM | HCC 2998 > 100 µM | HCT-116 > 100 µM | LOX IMVI > 100 µM | SK-MEL-28 > 100 µM | TK-10 > 100 µM | Malme-3M > 100 µM | CCRF-CEM > 100 µM | M19-MEL > 100 µM | XF498 > 100 µM | HT-29 > 100 µM | LXFL 529 > 100 µM | U-251 > 100 µM | IGROV-1 > 100 µM | SF-539 > 100 µM | UACC-257 > 100 µM | CAKI-1 > 100 µM | SF-268 > 100 µM | OVCAR-8 > 100 µM | A549 > 100 µM | OVCAR-5 > 100 µM | OVCAR-3 > 100 µM | 786-0 > 100 µM | DLD-1 > 100 µM | DMS-114 > 100 µM | SNB-75 > 100 µM | RXF 393 40.6 µM | SNB-19 > 100 µM | SN12C > 100 µM | SW-620 > 100 µM | SNB-78 > 100 µM | HOP-18 > 100 µM | DMS-273 > 100 µM | HL-60 > 100 µM | NCI-H522 > 100 µM | NCI-H226 > 100 µM | UACC-62 > 100 µM | EKVX > 100 µM | SF-295 > 100 µM | SK-OV-3 > 100 µM | MOLT-4 > 100 µM | NCI-H23 > 100 µM

Cn1c2c(c3ccccc31)CCN(CCCCN1CCN(c3cccc(Cl)c3)CC1)C2=O
11.6 µM: HCT-15
active: SNB-75 0.0975 µM
inactive: K562 4.45 µM | KM-20L2 4.17 µM | SK-MEL-2 16.7 µM | RPMI-8226 5.66 µM | SK-MEL-5 10.1 µM | HOP-62 15.2 µM | NCI-H460 13.4 µM | ACHN 14.9 µM | M14 3.3 µM | COLO 205 2.91 µM | UO-31 6.21 µM | HCT-116 6.65 µM | SK-MEL-28 6.07 µM | TK-10 11.5 µM | Malme-3M > 10 µM | CCRF-CEM 9.86 µM | M19-MEL 11.5 µM | XF498 14.4 µM | HT-29 2.79 µM | LXFL 529 11.1 µM | U-251 11.6 µM | IGROV-1 15.9 µM | SF-539 12.8 µM | UACC-257 7.03 µM | CAKI-1 27.2 µM | SF-268 16.9 µM | OVCAR-8 17.8 µM | A549 20.5 µM | A498 13.8 µM | OVCAR-5 4.56 µM | OVCAR-3 15.5 µM | 786-0 13 µM | DLD-1 10.6 µM | DMS-114 1.67 µM | RXF 393 7.94 µM | SNB-19 17.7 µM | SN12C 12.8 µM | HOP-92 15.2 µM | SW-620 12.6 µM | OVCAR-4 14.9 µM | SNB-78 2.88 µM | HOP-18 29 µM | DMS-273 9.06 µM | HL-60 3.67 µM | NCI-H522 12.3 µM | UACC-62 11.4 µM | EKVX 21.5 µM | SF-295 16.1 µM | SK-OV-3 16.3 µM | MOLT-4 7.62 µM | NCI-H23 12.6 µM

CN(/N=C/c1ccnc2ccccc12)c1ccc([N+](=O)[O-])cc1[N+](=O)[O-]
inactive: KM12 > 100 µM | K562 > 100 µM | KM-20L2 > 100 µM | SK-MEL-2 28.6 µM | RPMI-8226 > 100 µM | SK-MEL-5 > 100 µM | HOP-62 30.3 µM | NCI-H460 > 100 µM | ACHN > 100 µM | M14 > 100 µM | COLO 205 > 100 µM | UO-31 > 100 µM | HCC 2998 > 100 µM | LOX IMVI 81.7 µM | SK-MEL-28 87.7 µM | TK-10 > 100 µM | Malme-3M 61 µM | CCRF-CEM > 100 µM | M19-MEL > 100 µM | XF498 > 100 µM | HT-29 > 100 µM | LXFL 529 42.6 µM | U-251 > 100 µM | IGROV-1 > 100 µM | SF-539 89.5 µM | UACC-257 > 100 µM | CAKI-1 > 100 µM | SF-268 > 100 µM | OVCAR-8 > 100 µM | A549 > 100 µM | A498 > 100 µM | OVCAR-5 > 100 µM | OVCAR-3 19.7 µM | 786-0 30.6 µM | DLD-1 > 100 µM | DMS-114 > 100 µM | SNB-75 20.7 µM | RXF 393 41.8 µM | SNB-19 77.4 µM | SN12C > 100 µM | HOP-92 46.9 µM | SW-620 > 100 µM | OVCAR-4 > 100 µM | SNB-78 42.3 µM | HOP-18 > 100 µM | DMS-273 > 100 µM | HL-60 > 100 µM | NCI-H522 > 100 µM | NCI-H226 > 100 µM | UACC-62 > 100 µM | EKVX > 100 µM | SF-295 37.3 µM | SK-OV-3 47.5 µM | MOLT-4 > 100 µM | NCI-H23 91.6 µM
> 100 µM: HCT-15

Cc1cc(NS(=O)(=O)c2ccc(NC(=O)c3ccc(Cl)c4c(Nc5ccc(S(=O)(=O)Nc6cc(C)on6)cc5)c5ccccc5nc34)cc2)no1
inactive: KM12 19.7 µM | K562 23.2 µM | KM-20L2 21.5 µM | SK-MEL-2 20.9 µM | RPMI-8226 27.5 µM | SK-MEL-5 23 µM | HOP-62 23.3 µM | NCI-H460 21 µM | ACHN 19 µM | M14 22.2 µM | COLO 205 22.4 µM | UO-31 15.9 µM | HCT-116 14.2 µM | LOX IMVI 18.5 µM | SK-MEL-28 > 10 µM | TK-10 31.3 µM | Malme-3M 16.2 µM | CCRF-CEM 18.8 µM | M19-MEL 22.9 µM | XF498 31.8 µM | HT-29 19.8 µM | LXFL 529 21.6 µM | U-251 16.2 µM | IGROV-1 21.5 µM | SF-539 14.9 µM | UACC-257 20.2 µM | CAKI-1 15.9 µM | SF-268 13.8 µM | OVCAR-8 46 µM | A549 25.6 µM | A498 24.1 µM | OVCAR-5 21 µM | OVCAR-3 16.6 µM | 786-0 16 µM | DLD-1 > 10 µM | DMS-114 18.5 µM | SNB-75 6.46 µM | RXF 393 > 10 µM | SNB-19 14.4 µM | SN12C 18.6 µM | HOP-92 19.8 µM | SW-620 28.1 µM | OVCAR-4 34.6 µM | SNB-78 36.1 µM | HOP-18 15.8 µM | DMS-273 22.5 µM | HL-60 21.3 µM | NCI-H522 11.8 µM | UACC-62 14.4 µM | EKVX 39 µM | SF-295 23.8 µM | SK-OV-3 19.2 µM | MOLT-4 29 µM | NCI-H23 > 10 µM
18.7 µM: HCT-15
